# Active and inactive are the calls of the source. The calls are words filed in the database; no cut-off is given here.
# Tests used:
# [1] = test system: U-87 MG; settings: Homo sapiens, time 24.0 hrs
# [2] = test system: IGROV-1; assay: Antiproliferative activity against human IGROV-1 cells harboring PI3KCA/PTEN mutant assessed as cell growth inhibition incubated for 96 hrs by SRB assay; assay type: functional
# [3] = test system: A2780; assay: Antiproliferative activity against human A2780 cells harboring PI3KCA/PTEN mutant assessed as cell growth inhibition incubated for 96 hrs by SRB assay; assay type: functional
# [4] = test system: MDA-MB-435; assay: Antiproliferative activity against human MDA-MB-435 cells harboring AKT assessed as cell growth inhibition incubated for 96 hrs by SRB assay; assay type: functional
# [5] = test system: MDA-MB-468; assay: Antiproliferative activity against human MDA-MB-468 cells harboring PTEN deletion assessed as cell growth inhibition incubated for 96 hrs by SRB assay; assay type: functional
# [6] = test system: PC-3; assay: Antiproliferative activity against human PC-3 cells harboring PTEN deletion assessed as cell growth inhibition incubated for 96 hrs by SRB assay; assay type: functional
# [7] = test system: A549; assay: Antiproliferative activity against human A549 cells harboring AKT assessed as cell growth inhibition incubated for 96 hrs by SRB assay; assay type: functional
# [8] = test system: U-87 MG; assay: Antiproliferative activity against human U-87MG cells harboring PTEN deletion assessed as cell growth inhibition incubated for 96 hrs by SRB assay; assay type: functional, U-87MG ATCC
# [9] = test system: HCT-116; assay: Inhibition of recombinant PI3K in human HCT-116 cells assessed as increase in cleavage of PARP at 5 times of GI50 concentration incubated for 24 hrs by immunoblot analysis; assay type: cell-based
# [10] = test system: Detroit 562; assay: Antiproliferative activity against human Detroit 562 cells harboring PI3KCA mutant assessed as cell growth inhibition incubated for 96 hrs by SRB assay; assay type: functional
# [11] = test system: U-87 MG; settings: Homo sapiens, time 24.0 hrs; remark: listed apart in the source
# [12] = test system: HCT-116; assay: Inhibition of recombinant PI3K in human HCT-116 cells assessed as increase in cleavage of PARP at 10 times of GI50 concentration incubated for 24 hrs by immunoblot analysis; assay type: cell-based
# [13] = test system: HCT-116; assay: Antiproliferative activity against human HCT-116 cells harboring PI3KCA mutant assessed as cell growth inhibition incubated for 96 hrs by SRB assay; assay type: functional
compound,measurement,setting,value
O=c1cc(N2CCOCC2)oc2c(-c3ccccc3)cccc12 [LY-294002],inhibition,[1],Active
same,GI50,[2],5.5 µM
same,GI50,[3],5.58 µM
same,GI50,[4],15.3 µM
same,GI50,[5],6.5 µM
same,GI50,[6],4.6 µM
same,GI50,[7],9 µM
same,GI50,[8],9.8 µM
same,inhibition,[9],Active
same,GI50,[10],12.1 µM
same,inhibition,[11],Active
same,inhibition,[12],Active
same,GI50,[13],10.5 µM

# From ChEMBL document CHEMBL5661974, “Pharmacologic characterization of a potent inhibitor of class I phosphatidylinositide 3-kinases” (Cancer Res, 2007)
